Experiments:
[1] = test system: type I and type II gelatin; assay: CMP binding assay on thermally-denatured type I and II collagens (coatings); set-up: species or system rat (type I), bovine (type II); details: UV-exposed, 20 μM, room temperature
Procedure: CMP binding assay on thermally-denatured type I and II collagens. A solid-state protein coating instead of a reconstituted gelatin film (as described above) was chosen as the binding substrate to avoid the collagen type dependent film instability. Wells of nunc black 96-well maxisorp plate (Thermo Scientific) were charged with 50 μL of 1×PBS buffer containing 100 μg/mL type I or type II (bovine, BD Science) collagen which was denatured by 10 minutes of incubation at 75° C. After 1 hour, the coating solutions were removed and wells were washed with 1×PBS buffer containing 1 mg/mL BSA (PBSB), and blocked with 50 mg/mL BSA in PBS for 1 hour, followed by additional wash with PBSB. CF^NB(GPO)9 (SEQ ID NO: 4) or CF^SG9P9O9 (SEQ ID NO: 5) solution (20 μM, 50 μL in PBS) was added to each well, exposed to UV light for 10 min, and incubated at room temperature for 2.5 hours. Wells were washed three times with 100 μL of PBSB followed by fluorescence (ex: 489 nm, em: 533 nm) reading with a SpectraMax M-2 microplate reader (Molecular Devices). Each binding experiment was done in triplicate. The background fluorescence of empty wells was subtracted from the raw fluorescence data.

[2] = test system: collagen types I, II and IV; assay: SDS-PAGE staining by heat activated fluorescent CMP, collagen types; format: binding, rat (I), bovine (II), mouse (IV); details: 6 μM, 2 μg protein per lane
Excerpt: Acid soluble rat-tail type I collagen, bovine type II collagen, and mouse type IV collagen were purchased from BD Bioscience (San Jose, Calif.). Complement component C1q from human serum, fibronectin from bovine plasma, and laminin from Engelbreth-Holm-Swarm murine sarcoma basement membrane were purchased from Sigma-Aldrich. ProMMP-1, and p-aminophenylmercuric acetate were acquired from EMD millipore. Human umbilical vein endothelial cells (HUVECs) and EGM-2 cell growth media were obtained from Lonza (Walkersville, Md.). Precast NuPAGE® Novex 4-12% Bis-Tris Gel (1.0 mm, 12 well), Novex® Sharp unstained protein standard, and SDS-PAGE running buffer, sample buffer, and other SDS-PAGE reagents were purchased from Life Technologies.
SDS-PAGE staining and imaging. Proteins were resolved on NuPAGE® Novex 4-12% bis-tris gels under denaturating conditions using an XCell SureLock™ Mini-Cell electrophoresis system (Life Technologies). NuPAGE® MOPS SDS running buffer containing 50 mM MOPS, 50 mM Tris Base, 0.1% SDS, and 1 mM EDTA (pH 7.7) was used. Protein samples were heated to 85° C. in NuPAGE® LDS sample denaturing buffer for 10 min before the gel loading. Unless specified otherwise, 2 μg of protein was used for each lane. The gels were run at 200 V for 50-60 min. Reducing conditions were used only for gels carrying type IV collagen, HUVECs lysate, and C1q, for which NuPAGE® reducing agent was mixed with the protein samples, and 500 μL of NuPAGE® antioxidant was added to the cathode buffer before loading. After electrophoresis, the gels were washed by deionized water briefly three times to remove the remaining SDS. […] The fluorescence intensities of the protein bands were quantified using GE ImageQuant™ TL software. After fluorescence imaging, all gels were further stained with coomassie brilliant blue (CB) G-250 (Bio-Rad) for 2-3 hr followed by washing, and imaging under white light illumination using a Gel Doc EQ system (BioRad).

## CF-GGG-(GPO)4^NBGPO(GPO)4 [CF^NB(GPO)9]
[1]
  binding affinity to gelatin (fluorescence level): confirmed for both type I and type II gelatin

## CF-GGG-(GPO)9 [CF(GPO)9]
[2]
  staining of collagen bands: binds to collagen types I, II and IV

## CF-GGG-PGOGPGPOPOGOGOPPGOOPGGOOPPG [CF^SG9P9O9, reference compound]
[2]
  staining of collagen bands: virtually no binding affinity to the collagen bands
[2]; listed as CFSG9P9O9
  staining of collagen bands: revealed no collagen bands
[1]
  binding affinity to gelatin (fluorescence level): negligible affinity to gelatin

— patent US10426850B2, “Collagen mimetic peptides for targeting collagen strands for in vitro and in vivo imaging and therapeutic use” (The Johns Hopkins University, priority 2011, dated 2019)
